Results: PubChem BioAssay (NCI)
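Interpolation was linear, between the two tested concentrations surrounding the appropriate level; five concentrations were tested over 48 hours in 96-well plates. GI50: concentration for 50% inhibition of growth. TGI: total growth inhibition.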

Tests used:
Assay in all cases: DTP human tumour cell line panel, 48 h
HL-60(TB) leukemia = test system: HL-60(TB) leukemia
SNB-75 CNS = test system: SNB-75 CNS
HT29 colon = test system: HT29 colon
IGROV1 ovarian = test system: IGROV1 ovarian
SK-MEL-28 melanoma = test system: SK-MEL-28 melanoma
SR leukemia = test system: SR leukemia
NCI/ADR-RES ovarian = test system: NCI/ADR-RES ovarian
SK-MEL-2 melanoma = test system: SK-MEL-2 melanoma
MALME-3M melanoma = test system: MALME-3M melanoma
UACC-257 melanoma = test system: UACC-257 melanoma

Structure (SMILES)	TGI (HL-60(TB) leukemia) [µM]	TGI (SNB-75 CNS) [µM]	TGI (HT29 colon) [µM]	TGI (IGROV1 ovarian) [µM]	TGI (SK-MEL-28 melanoma) [µM]	TGI (SR leukemia) [µM]	TGI (NCI/ADR-RES ovarian) [µM]	TGI (SK-MEL-2 melanoma) [µM]	TGI (MALME-3M melanoma) [µM]	TGI (UACC-257 melanoma) [µM]	GI50 (NCI/ADR-RES ovarian) [µM]	GI50 (HL-60(TB) leukemia) [µM]	GI50 (SNB-75 CNS) [µM]	GI50 (HT29 colon) [µM]	GI50 (IGROV1 ovarian) [µM]	GI50 (SK-MEL-2 melanoma) [µM]	GI50 (MALME-3M melanoma) [µM]	GI50 (SK-MEL-28 melanoma) [µM]	GI50 (UACC-257 melanoma) [µM]	GI50 (SR leukemia) [µM]
Cc1ccc([N+](=O)[O-])cc1NC(=O)C(=O)Cc1occc(=O)c1O	> 100	> 100	> 100	> 100	> 100	> 100														
NC(CNO)C(=O)O (stereo not given)	21.7	> 100	> 100	> 100	> 100		> 100	> 100	> 100	> 100										
C[C@@H](CO)OCOCc1ccccc1	> 100	> 100	> 100	> 100	> 100			> 100	> 100	> 100										
COC(=O)C1=CN=C(C(=O)OC)NN1	> 100	> 100	> 100	> 100	> 100	> 100		> 100	> 100	> 100										
C/C=C/C=N/N(C(=O)c1cc([N+](=O)[O-])cc([N+](=O)[O-])c1)C1=NC(c2ccccc2)C(c2ccccc2)=NN1 (stereo not given)	55.6	> 100	> 100	> 100	> 100			> 100	75.2	70.8										
Cn1ncc2c(/N=C/c3cccs3)[nH]c(=S)nc21	> 100	> 100	> 100	> 100	> 100		> 100	> 100	> 80.7	> 100	> 100	43.6	> 63.7	52.3	> 61.2	> 64.5	34	56.5	> 65.4	
Cc1oc2c(C)c(O)c3c(c2c1C1(C)OCCO1)C(=O)C=C(Cl)C3=O	> 100		> 100	> 100	> 100	> 100		> 100		> 100										
O=C(Nc1n[nH]c2nc(-c3ccco3)ccc12)C1CC1	> 25	> 25	> 25	> 25	> 25		> 25	> 25	> 25	> 25	> 25	> 25	> 25	> 25	> 25	> 25	> 25	> 25	> 25	
Cc1ccccc1NC(=O)C(=O)C(c1cnc2ccc([N+](=O)[O-])cc2n1)[N+](=O)[O-] (stereo not given)	> 100	> 100	> 100	> 100	> 100	> 100		> 100	> 100	> 100										
COc1ccc(NC(=O)C(=O)C2CNC(=O)NC2=O)c(OC)c1 (stereo not given)	> 100	> 100	> 100	> 100	> 100	> 100		> 100	> 100	> 100										
CN(C)C(=O)/N=c1\ss/c(=N\C(=S)N(C)C)n1-c1ccccc1	44.8	71.1		> 100	> 56.6	> 100		> 100	> 100	28.6		6.59								
NC(=O)N/N=C(\C(=O)C(=O)Nc1ccc(Cl)c(C(F)(F)F)c1)c1nc2ccc(C(=O)c3ccccc3)cc2[nH]c1=O			> 100	> 100	> 100	> 100		> 100	> 100	> 100										
CCCCCCCC/C=C/CCCCCCCC1=NC(C)(C)CN1C(C)C	3.25	2.9	1.86	2.14	2.86	2.42	3.16		3.27	3.4	1.54	1.62	1.56	0.576	0.868		1.63	1.53	1.86	1.02
Nc1ncnc(NC2C=C(CO)C(O)C2O)c1[N+](=O)[O-] (stereo not given)	> 100	> 100	> 100	> 100	> 100	> 100		> 100		> 100										
C=C[C@]1(C)CCC2=C(CCC3C2(C)CCC[C@]3(C)CO)C1 (stereo not given in full)	52.2	> 100	48	> 100	> 100	> 100		> 100	> 100	> 100										
COC(=O)C(C(=O)C(=O)NC1=C(Cl)C(=O)c2ccccc2C1=O)c1csc(-n2nc(-c3ccccc3)cc2-c2ccccc2)n1 (stereo not given)	> 100	9.4	> 100	> 100		> 100			> 100	> 100										
CC#CS(=O)(=O)c1ccccc1	3.81	13.9	14.4	25.4	12.6		28.8	32.5	12.5	12.1										
Oc1ccc(CNCc2ccccc2)c2cccnc12	1.05	0.229	> 100	> 100	> 100	> 100	16.9			0.816										
COC(=O)/C(C#N)=C1\CCC(O)N1C (stereo not given)	> 100	> 100	> 100	> 100	> 100			> 100	> 100	> 100										
C/C(CC(=O)NNc1ccc([N+](=O)[O-])cc1)=N\Nc1ccc([N+](=O)[O-])cc1	> 100	93.5	> 100	> 100	> 100		> 100	87.5	66.5	> 100	15.1	2.48	22.1	7.66	14.1	11	10.6	31.5	39.6	
COC(=O)C(=O)C(C(=O)C(=O)Nc1ccc(Cl)cc1C)c1nc2ccc(C(=O)c3ccccc3)cc2[nH]c1=O (stereo not given)	> 100	> 100	> 100	> 100		> 100		> 100	> 100	> 100										
